Reference: article PMC10184511 (Neuro-Oncology Advances, 2023)

How the values were obtained:
[1] = In vitro 3D BBB permeability assay; format: in vitro ADME; settings: human, pH 7
BBB = settings: previous report; cited from earlier work
[2] = tested on: p53-p21 axis in Mel-7 cells; test: Western blotting of p53-p21 axis, cell-cycle proteins and Cyt c, Mel-7; format: cell-based, human; settings: 24 hours
[3] = description in words; cited from earlier work
[4] = metastatic melanoma patients, 200 mg/m^2 TMZ; cited from earlier work

In the case of `Cn1nnc2c(C(N)=O)ncn2c1=O` [TMZ, temozolomide], the Papp A→B at 30 min, 100 μM [1] is given as 2.67 ×10⁻⁶ cm/s, the BBB permeability (BBB) is given as 2.7 ×10⁻⁶ cm/s and the “Cyt c release into the cytoplasm” value ([2]; single agent, cytosolic fraction) is given as “increased”. For the same compound, the p53 levels ([2]; single-agent treatment, whole-cell lysate) was “substantially increased”, the lipophilicity [3] was “lipophilic” and the Cmax [4] was ~ 20 μg/mL.
